Results reported in patent US6150359A, “Naphthyridinones for inhibiting protein tyrosine kinase and cell cycle kinase mediated cellular proliferation” (Warner-Lambert Company, priority 2000, dated 2000).

Legend:
[1] = biological target: T1, PDGFr (mouse PDGF-β receptor tyrosine kinase) (Mus musculus, UniProt P05622); assay: PDGFr tyrosine kinase assay, 32P incorporation into glutamate-tyrosine copolymer; format: biochemical; details: 50 μM ATP
T1 construct: PCR primers are designed to amplify a fragment of DNA that codes for the intracellular tyrosine kinase domain; made in house; host or cells: Sf9 insect cells (baculovirus), cell lysate
Experimental: Platelet Derived Growth Factor Receptor (PDGFr) and Fibroblast Growth Factor Receptor (FGFr). Full length cDNAs for the mouse PDGF-β and human FGF-1 (flg) receptor tyrosine kinases were obtained from J. Escobedo and are prepared as described in J. Biol. Chem., 1991;262:1482-1487. PCR primers are designed to amplify a fragment of DNA that codes for the intracellular tyrosine kinase domain. The fragment is melded into a baculovirus vector, cotransfected with AcMNPV DNA, and the recombinant virus isolated. SF9 insect cells are infected with the virus to overexpress the protein, and the cell lysate is used for the assay.
PDGFr and FGFr. […] Briefly, to each well is added 82.5 μL of incubation buffer containing 25 mM Hepes (pH 7.0), 150 mM NaCl, 0.1% Triton X-100, 0.2 mM PMSF, 0.2 mM sodium vanadate, 10 mM manganese chloride, and 750 μg/mL of poly (4:1) glutamate-tyrosine followed by 2.5 μL of inhibitor and 5 μL of enzyme lysate (7.5 μg/μL FGFR-TK or 6.0 μg/μL PDGFR-TK) to initiate the reaction. Following a 10 minute incubation at 25° C., 10 μL of [γ^32 P]ATP (0.4 μCi plus 50 μM ATP) is added to each well, and samples are incubated for an additional 10 minutes at 25° C. The reaction is terminated by the addition of 100 μL of 30% trichloroacetic acid (TCA) containing 20 mM sodium pyrophosphate and precipitation of material onto glass fiber filter mats (Wallac). […] Nonspecific activity is defined as radioactivity retained on the filters following incubation of samples with buffer alone; (no enzyme). Specific enzymatic activity is defined as total activity (enzyme plus buffer) minus nonspecific activity.

[2] = test system: HT-29 cells; assay: Human Colon Carcinoma Clonogenic Assay, HT-29; format: cell-based; details: HT-29, 2 days with drug, colonies after approximately 2 weeks
Experimental: (§1) Human Colon Carcinoma Clonozenic Assay. Human colon carcinoma cells are seeded into 6 well plates in volumes of 3 mL and allowed to incubate overnight (37° C., 5% CO2, 95% air). SW-620 cells are seeded at 7×10^5 per well; HCT-8 cells are seeded at 5×10^5 per well; HT-29 cells are seeded at 4×10^5 cells per well. Serially diluted drugs are prepared at 200 times the final concentration, and 15 μL are added to each of duplicate wells. Cells are incubated with drug for 2 days, rinsed once with 1 mL of trypsin+EDTA, and then trypsinized with the same trypsin solution. After trituration and centrifugation at 750×g for 3 minutes, the cells are suspended in serum-free growth medium and counted using an electronic particle counter. An agarose mixture appropriate for the cloning of each cell line is made using 10% fetal bovine serum in growth medium (SW-620-0.35% agarose, HCT-8 and HT-29-0.4% agarose). […] One; milliliter of each of these cell suspensions is added to duplicate wells of 6 well plates previously prepared with 10% serum/growth medium/1% agarose plugs. The cells in these plates are incubated for approximately 2 weeks in the incubator and stained with 1 mL per well of 1 mg/mL iodonitrotetrazolium violet stain. The visible colonies are counted with an electronic optical colony counter and the clonogenicity of treated cells calculated in comparison to untreated control cells.

[3] = test system: HCT-8 cells; assay: Human Colon Carcinoma Clonogenic Assay, HCT-8; format: cell-based; details: HCT-8, 2 days with drug, colonies after approximately 2 weeks
Experimental: as §1

[4] = biological target: T2, insulin receptor (INSr) (Homo sapiens, UniProt P06213); assay: Insulin receptor (INSr) kinase assay; format: biochemical; details: 10 mM manganese chloride
T2 construct: An assay using the intracellular kinase domains of insulin receptor (INSr)
Experimental: EGFr. Enzyme assays for IC50 determinations are performed in 96-well filter plates (Millipore MADVN6550). The total volume is 0.1 mL containing 20 mM Hepes, pH 7.4, 50 μM sodium vanadate, 40 mM magnesium chloride, 10 μM ATP containing 0.5 μCi of [^32 P]ATP, 20 μg of polyglutamic acid/tyrosine (Sigma Chemical Co., St. Louis, Mo.), 10 ng of EGF receptor tyrosine kinase and appropriate dilutions of inhibitor. All components except the ATP are added to the well, and the plate is incubated with shaking for 10 minutes at 25° C. The reaction is started by adding [^32 P]ATP, and the plate is incubated at 25° C. for 10 minutes. The reaction is terminated by addition of 0.1 mL of 20% trichloroacetic acid (TCA). The plate is kept at 4° C. for at least 15 minutes to allow the substrate to precipitate. The wells are then washed five times with 0.2 mL of 10% TCA, and ^32 P incorporation is determined with a Wallac beta plate counter.
Other Kinases. An assay using the intracellular kinase domains of insulin receptor (INSr) is performed as described for the EGF receptor except that 10 mM manganese chloride is included in the reaction. The PKC assay is performed as previously described by Martiny-Baron, et al., J. Biol. Chem., 1993;268:9194-9197.

[5] = test system: HCT-8 cells; assay: Human Colon Carcinoma Growth Delay Assay, HCT-8; format: cell-based; details: 72 h, HCT-8, 3 days
Experimental: Human Colon Carcinoma Growth Delay Assay. Human colon carcinoma cells are seeded into 96-well tissue culture plates in a final volume of 180 μL of 10% fetal bovine serum containing growth media and allowed to incubate overnight (37° C., 5% CO2, 95% air). Cells of the SW-620 cell line are seeded at 1.0-1.5×10^4 cells per well. Cells of the HCT-8 and HT-29 cell lines are seeded at 2-4×10^3 cells per well. Serially diluted drug solutions are prepared in growth medium at 10 times concentration; 20 μL of these solutions are added to duplicate wells and incubated with the cells for 3 days in a cell culture incubator. At the end of the incubation period, cells are fixed with 100 μL per well of 10% trichloroacetic acid after removing the drug/culture medium. The plates are washed five times with tap water and stained with 100 μL per well of 0.075% sulfrhodamine B in 1% acetic acid for 10 minutes. The plates are rinsed four times and allowed to air dry. The stain in the wells are solubilized by the addition of 10 mM unbuffered Tris base and the absorbance read using a microtiter plate optical reader. Inhibition of cell growth is calculated from absorbance data of the treated cells compared to untreated control cells.

T2 sequence (P06213 1023-1298 limits assumed, species assumed): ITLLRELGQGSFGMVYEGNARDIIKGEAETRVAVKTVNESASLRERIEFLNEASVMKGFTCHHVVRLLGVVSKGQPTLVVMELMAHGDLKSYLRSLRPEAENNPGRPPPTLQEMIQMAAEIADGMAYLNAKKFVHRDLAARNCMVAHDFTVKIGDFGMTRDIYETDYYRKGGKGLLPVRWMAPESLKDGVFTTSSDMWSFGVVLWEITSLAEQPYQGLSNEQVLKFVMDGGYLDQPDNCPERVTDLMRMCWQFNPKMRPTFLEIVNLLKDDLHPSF
T1 sequence (P05622 599-961 limits assumed): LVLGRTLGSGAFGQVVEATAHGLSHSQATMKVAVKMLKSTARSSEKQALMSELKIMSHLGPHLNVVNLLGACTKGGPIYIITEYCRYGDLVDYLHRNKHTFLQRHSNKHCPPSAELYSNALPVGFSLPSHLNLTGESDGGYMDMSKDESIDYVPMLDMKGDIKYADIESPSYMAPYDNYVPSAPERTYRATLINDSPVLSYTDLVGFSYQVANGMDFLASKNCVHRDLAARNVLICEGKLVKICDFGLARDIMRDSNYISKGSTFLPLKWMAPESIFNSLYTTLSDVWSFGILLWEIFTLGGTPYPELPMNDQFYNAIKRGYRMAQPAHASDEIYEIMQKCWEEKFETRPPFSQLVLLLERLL

SMILES	IC50 [1]	IC50 [2]	IC50 [3]	IC50 [4]	IC50 [5]
CCN(CC)CCCCNc1cc2c(cn1)cc(-c1c(Cl)cccc1Cl)c(=O)n2C [Example F, 3-(2,6-dichlorophenyl)-7-[4-(diethylamino)butylamino]-1-methyl-1H-[1,6]naphthyridin-2-one]	420 nM	> 5 µM	> 5 µM	> 50 µM	2300 nM
CN1CCN(CCCNc2cc3c(cn2)cc(-c2c(Cl)cccc2Cl)c(=O)n3C)CC1 [Example H, 3-(2,6-dichlorophenyl)-1-methyl-7-[3-(4-methylpiperazin-1-yl)propylamino]-1H-[1,6]naphthyridin-2-one]	890 nM	> 5 µM	> 5 µM	> 50 µM	2800 nM
CCN(CC)CCOc1ccc(Nc2cc3c(cn2)cc(-c2c(Cl)cccc2Cl)c(=O)n3C)cc1 [Example P, 3-(2,6-dichlorophenyl)-7-[(4-(2-(diethylamino)ethoxy)phenyl)amino]-1-methyl-1H-[1,6]naphthyridin-2-one]	90 nM	> 5 µM	> 5 µM	> 50 µM	2800 nM
CN1CCN(CCOc2ccc(Nc3cc4c(cn3)cc(-c3c(Cl)cccc3Cl)c(=O)n4C)cc2)CC1 [Example S, 3-(2,6-dichlorophenyl)-1-methyl-7-[(4-(2-(4-methylpiperazin-1-yl)ethoxy)phenyl)amino]-1H-[1,6]naphthyridin-2-one]	340 nM	–	–	–	5200 nM
